Where a SMILES comes first, the peptide text is derived from it. [ ]: non-standard residue; d: D form. The star is where a group is joined. Dolaproine = CO[C@@H]([C@@H]1CCCN1)[C@@H](C)C(=O)O; Dil = CC[C@H](C)[C@H](NC)[C@@H](CC(=O)O)OC; X1 = C[C@@H](N*)[C@@H](O)c1ccccc1; NMeV = CN[C@H](C(=O)O)C(C)C
Test: Phase I/II dose-escalation study: plasma pharmacokinetics
Assay type: in vivo, human
Conditions: after tisotumab vedotin, cycle 1 and cycle 2, all dose cohorts (FIG. 4)
Procedure: A first-in-human phase I/II dose-escalating study following a 3+3 dose-escalation design was conducted in order to test the safety of tisotumab vedotin in 27 subjects with locally advanced and/or metastatic cancer of various types including cervical cancer (FIG. 2). Tisotumab vedotin was administered by intravenous infusion at doses ranging from 0.3 mg/kg to 2.2 mg/kg on day 1 of a 21-day cycle for four cycles (i.e., each treatment cycle was 3 weeks). Patients with stable disease (SD) or better at the end of four cycles had the option to continue treatment with tisotumab vedotin for eight additional cycles (FIG. 2). Tumor evaluations were performed by CT scans every six weeks. In order to qualify for SD, results of the CT scan scheduled for week six needed to be SD or better. Two CT scans were performed outside the per-protocol defined window.
A primary objective of the study was to assess the safety and tolerability in a mixed population of patients with specified solid tumors. Adverse event (AE) severity was graded according to Common Terminology Criteria for Adverse Events (CTCAE) version 4.03. Secondary objectives of the study included determining the pharmacokinetic (PK) profile of tisotumab vedotin and preliminary evaluation of anti-tumor activity as assessed according to Response Evaluation Criteria in Solid Tumors [RECIST] version 1.1. Dose-limiting toxicities (DLTs) were determined during the first cycle and were defined as grade≥3 events possibly related to tisotumab vedotin. […] Tumor biopsies were required at baseline for TF expression which was assessed by immunohistochemistry utilizing tisotumab. TF staining intensity was determined using the H-scoring system.
The geometric means (% CV) of the time to reach Cmax (Tmax)(hr), maximum concentration (Cmax)(ng/mL), and area under the concentration time curve (AUC)0-t (hr*ng/mL) was measured for the pharmacokinetics (PK) portion of the study (Table 3). Low levels of unconjugated MMAE were measured in systemic circulation (FIG. 4).

## CC[C@H](C)[C@@H]([C@@H](CC(=O)N1CCC[C@H]1[C@H](OC)[C@@H](C)C(=O)N[C@H](C)[C@@H](O)c1ccccc1)OC)N(C)C(=O)[C@@H](NC(=O)[C@@H](NC)C(C)C)C(C)C [MMAE, monomethyl auristatin E] (H-[NMeV]V[Dil][Dolaproine]-X1)
  unconjugated MMAE in systemic circulation: Low levels

Reference: patent publication US20240252673A1, “ANTI-TISSUE FACTOR ANTIBODY-DRUG CONJUGATES AND THEIR USE IN THE TREATMENT OF CANCER” (priority 2017, published 2024)
